Test results: patent US7166621B2, “Pyridyloxyalkanoic acid amide derivatives useful as fungicides” (priority 2001, dated 2007)

What was measured:
Phytophthora infestans = assay: whole plant or invertebrate; assay type: in vivo; conditions: in Solanum lycopersicum, foliar, 96 h, read-out: control of Phytophthora infestans
Plasmopara viticola = assay: Leaf disk assay, downy mildew of grapevine, preventive fungicidal activity; assay type: in vivo; conditions: foliar, 168 h
[1] = grapevine leaf disks, preventive, assessed seven days after inoculation

Compound	pest or weed control at 200 ppm (Phytophthora infestans) [%]	pest or weed control at 200 ppm (Plasmopara viticola; [1]) [%]	pest or weed control at 200 ppm (Plasmopara viticola) [%]	other results
CCC#CC(C)(C)NC(=O)C(CC)Oc1cncc(C(=O)O)c1 (centres unmarked)	–	–	–	melting point: 162 to 164 °C
CC#CC(C)(C)NC(=O)C(CC)Oc1cncc(Br)c1 (single isomer, unassigned; (-)) [(−) isomer of Compound 13 of Table 1, (−) 2-(5-bromo-3-pyridyloxy)-N-(4-methylpent-2-yn-4-yl)butyramide]	≥ 70	–	–	–
CCC#CC(C)(C)NC(=O)C(CC)Oc1cncc(Cl)c1 (centres unmarked) [Compound No. 1 of Table 1, 2-(5-chloro-3-pyridyloxy)N-(2-methylhex-3-yn-2-yl)butyramide]	–	≥ 70	–	–
CC#CC(C)(C)NC(=O)C(CCC)Oc1cncc(Cl)c1 (centres unmarked) [Compound No. 3 of Table 1, 2-(5chloro-3-pyridyloxy)-N-(2-methylpent-3-yn-2-yl)valeramide]	≥ 70	≥ 70	–	–
CC#CC(C)(C)NC(=O)C(CC)Oc1cncc(Cl)c1 (centres unmarked) [Compound No. 8 of Table 1, 2-(5-chloro-3-pyridyloxy)-N-(2-methylpent-3-yn-2-yl)butyramide]	–	≥ 70	–	–
CC#CC(C)(C)N(C)C(=O)C(CC)Oc1cncc(Cl)c1 (centres unmarked) [Compound No. 10 of Table 1, 2-(5-chloro-3-pyridyloxy)-N-methyl-N-(2-methylpent-3-yn-2-yl)butyramide]	–	≥ 70	–	–
CC#CC(C)(C)NC(=O)Cc1ccccc1Oc1cncc(Cl)c1 [Compound No. 11 of Table 1, 2-(5-chloro-3-pyridyloxy)-N-(2-methylpent-3-yn-2-yl)phenylacetamide]	≥ 70	–	–	–
CC#CC(C)(C)NC(=O)C(CC)Oc1cncc(Br)c1 (centres unmarked) [Compound No. 13 of Table 1, 2-(5-bromo-3-pyridyloxy)-N-(2-methylpent-3-yn-2-yl)butyramide]	–	≥ 70	–	–
CCC#CC(C)(C)NC(=O)C(CC)Oc1cncc(Br)c1 (centres unmarked) [Compound No. 14 of Table 1, 2-(5-bromo-3-pyridyloxy)-N-(2-methylhex-3-yn-2-yl)butyramide]	–	≥ 70	–	–
CCC#CC(C)(C)NC(=O)C(CC)Oc1cncc(C(=O)N(C(C)C)C(C)C)c1 (centres unmarked) [Compound No. 15 of Table 1, 2-(5-(N,N-diisopropylaminocarbonyl)-3-pyridyloxy)-N-(5-methylhex-3-yn-5-yl)butyramide]	≥ 70	≥ 70	–	–
CC#CC(C)(C)NC(=O)C(COC)Oc1cncc(Cl)c1 (centres unmarked) [Compound No. 21 of Table 1, 2-(5-chloro-3-pyridyloxy)-N-(4-methylpent-2-yn-4-yl)-3-methoxypropionamide]	–	–	≥ 70	–
CCC(Oc1cncc(Cl)c1)C(=O)NC(C#CC(C)C)OC (centres unmarked) [Compound No. 49 of Table 1, 2-(5-chloro-3-pyridyloxy)-N-(1-methoxy-4-methylpent-2-ynyl)butyramide]	–	–	≥ 70	–
CCCC#CC(C)(C)NC(=O)C(CC)Oc1cncc(Cl)c1 (centres unmarked) [Compound No. 120 of Table 1, 2-(5-chloro-3-pyridyloxy)-N-(6-methylhept-4-yn-6-yl)butyramide]	–	≥ 70	–	melting point: 70 to 71 °C
CCCC#CC(C)(C)NC(=O)C(CC)Oc1cncc(Br)c1 (centres unmarked) [Compound No. 128 of Table 1, 2-(5-bromo-3-pyridyloxy)-N-(6-methylhept4-yn-6-yl)butyramide]	≥ 70	≥ 70	–	–
CC#CC(C)(CC)NC(=O)C(CC)Oc1cncc(Cl)c1 (centres unmarked) [Compound No. 136 of Table 1, 2-(5chloro-3-pyridyloxy)-N-(4methylhex-2-yn-4-yl)butyramide]	–	≥ 70	–	–
CC#CC(C)(C)NC(=O)C(CC)Oc1cnc(Cl)c(Cl)c1 (centres unmarked) [Compound No. 247 of Table 1, 2-(5,6-dichloro-3-pyridyloxy)-N-(4-methylpent-2-yn-4-yl)butyramide]	–	–	≥ 70	–
CCC(Oc1cnc(Cl)c(Cl)c1)C(=O)NC(C)(C)C#CCOC (centres unmarked) [Compound No. 259 of Table 1, 2-(5,6-dichloro-3-pyridyloxy)-N-(1-methoxy-4-methylpent-2-yn-4-yl)butyramide]	–	–	≥ 70	–
CC#CC(C)(C)NC(=O)C(CC)Oc1cncc(Oc2ccccc2)c1SC (centres unmarked) [Compound No. 263 of Table 1, 2-(4-methylthio-5-phenoxy-3-pyridyloxy)-N-(4-methylpent-2-yn-4-yl)butyramide]	≥ 70	–	≥ 70	–
CC#CC(C)(C)NC(=O)C(CC)Oc1cncc(C(C)=O)c1 (centres unmarked) [Compound No. 326 of Table 1, 2-(5-acetyl-3-pyridyloxy)-N-(4-methylpent-2-yn-4-yl)butyramide]	≥ 70	–	–	–
CC#CC(C)(C)NC(=O)C(CC)Oc1cncc(C#N)c1 (centres unmarked) [Compound No. 342 of Table 1, 2-(5-cyano-3-pyridyloxy)-N-(4-methylpent-2-yn-4-yl)butyramide]	≥ 70	–	≥ 70	–
C#Cc1cncc(OC(CC)C(=O)NC(C)(C)C#CC)c1 (centres unmarked) [Compound No. 358 of Table 1, 2-(5-ethynyl-3-pyridyloxy)-N-(4-methylpent-2-yn-4-yl)butyramide]	–	–	≥ 70	–
C=Cc1cncc(OC(CC)C(=O)NC(C)(C)C#CC)c1 (centres unmarked) [Compound No. 374 of Table 1, 2-(5-ethenyl-3-pyridyloxy)-N-(4-methylpent-2-yn-4-yl)butyramide]	≥ 70	–	–	–
C=C(OCC)c1cncc(OC(CC)C(=O)NC(C)(C)C#CC)c1 (centres unmarked) [Compound No. 378 of Table 1, 2-[5-(1-ethoxyethen-1-yl)-3-pyridyloxy]-N-(4-methylpent-2-yn-4-yl)butyramide]	≥ 70	–	–	–
